The nature of one data set: ChromatoLogD. It is filed as physicochemical. An excerpt: 1 TREK-1 Inhibitory Activity and Lipophilicity of Analogues 10 | column: ChromatoLogD
In the next data set the target is T1, human TREK-1 (Homo sapiens, UniProt O95069).
T1 sequence (O95069 1-426): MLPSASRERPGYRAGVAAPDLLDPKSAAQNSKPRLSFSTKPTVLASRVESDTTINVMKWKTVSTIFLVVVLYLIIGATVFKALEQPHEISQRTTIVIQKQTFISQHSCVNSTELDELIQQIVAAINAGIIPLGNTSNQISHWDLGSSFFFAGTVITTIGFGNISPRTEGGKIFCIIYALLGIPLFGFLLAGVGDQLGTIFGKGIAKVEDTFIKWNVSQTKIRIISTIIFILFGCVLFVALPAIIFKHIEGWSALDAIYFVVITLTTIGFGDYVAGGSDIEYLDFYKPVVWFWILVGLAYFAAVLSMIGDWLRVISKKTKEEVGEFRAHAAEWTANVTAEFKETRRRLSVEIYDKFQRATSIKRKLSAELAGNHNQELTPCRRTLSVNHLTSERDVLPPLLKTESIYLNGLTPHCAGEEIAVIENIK
The experiment in a line: TREK-1 thallium (Tl+) flux assay. Conditions: for pIC50: read-out: h TREK-1 Tl+ IC50, thallium flux, hTREK-1/CHO.

Data set [1] is described as follows: Liver microsome intrinsic clearance (human). It is filed as in vitro ADME. Conditions: for CLint scaled at 1 µM: pH 7.4, human liver microsomes, read-out: LMS CLINT human. On the procedure:
(§1) After a 5 min preincubation, the reaction was initiated by the addition of NADPH (1 mM). At selected time intervals between 0 ~ 60 min (e.g. 0, 3, 7, 15, 25, 45 and/or 60 min), aliquots were taken and subsequently placed into a 96-well plate containing cold acetonitrile with an internal standard (50 ng/mL carbamazepine). Plates were then centrifuged at 3000 rcf (4 °C) for 10 min, and the supernatant was transferred to a separate 96-well plate and diluted 1:1 with water for LC/MS/MS analysis. The in vitro half-life (T 1/2, min, Eq. 1), intrinsic clearance (CLint, mL/min/kg, Eq. 2), and subsequent predicted hepatic clearance (CLhep, mL/min/kg, Eq. 3) were determined employing the following equations: […]
(§2) where k represents the slope from linear regression analysis of the natural log percent remaining of a test compound as a function of incubation time […]
(§3) (2) CLint = in vitroT1/2 x mg microsomes x gram liver x kg body wt ascale-up factors: of 20 (human) or 45 (rat) or 87.5 (mouse) […]
(§4) where Qh (hepatic blood flow, mL/min/kg) is 21 (human) or 70 (rat) or 90 (mouse).
(§5) LC/MS/MS Bioanalysis of Samples from Plasma Protein Binding and Intrinsic Clearance […]
(§6) Samples were analyzed on a Thermo Electron TSQ Quantum Ultra triple quad mass spectrometer (San Jose, CA) via electrospray ionization (ESI) with two Themo Electron Accella pumps (San Jose, CA), and a Leap Technologies CTC PAL autosampler (Carrboro, NC). Analytes were separated by gradient elution on a dual column system with two Thermo Hypersil Gold (2.1 x 30 mm, 1.9 µm) columns (San Jose, CA) thermostated at 40 °C. HPLC mobile phase A was 0.1% formic acid in water and mobile phase B was 0.1% formic acid in acetonitrile. The gradient started […]
(§7) for 0.2 min; returned to 10% B in 0.1 min. The total run time was 1.3 min and the HPLC flow rate was 0.8 mL/min. While pump 1 ran the gradient method, pump 2 equilibrated the alternate column isocratically at 10% B. Compound optimization, data collection, and processing were performed using Thermo Electron's QuickQuan software (v2.3) and Xcalibur (v2.0.7 SP1). […]

Data set [2] can be described thus: Rat IV:PBL PK cassette study / in vivo rat clearance. Conditions: male, Sprague-Dawley, in vivo rat plasma clearance, read-out: rat CLp; for clearance: intravenous; for clearance at 24 h: iv, 0.2 mg/kg.
The nature of data set [3]: Liver microsome intrinsic clearance (mouse). The class given is in vitro ADME. Conditions: pH 7.4; mouse liver microsomes; read-out: LMS CLINT mouse. On the procedure:
as §1, §2, §3, §4, §5, §6, §7
On the technique in general: Liver microsomes are vesicles of endoplasmic reticulum, rich in cytochrome P450 enzymes.

The nature of data set [4]: Plasma protein binding (human). Conditions: pH 7.4, read-out: PPB human (converted). It is filed as in vitro ADME. On the procedure:
(§8) 0.3% DMSO - ΔRatio of 1 µM control compound)x100
(§9) In vitro Plasma protein binding and Brain homogenate binding: Determination of fraction unbound (f u) in plasma was conducted in vitro via equilibrium dialysis using HTDialysis (HTD) membrane plates. The top half of the plate was filled with 100 uL of Dubelco’s Phosphate Buffered Saline, pH 7.4 (DPBS). Compounds were diluted into plasma from each species (5 µM final concentration), which was aliquoted in triplicate to the ‘bottom half’ of the prepared HTD plate wells. The HTD plate was sealed and incubated for 6 hours at 37 °C. Following incubation, each well (both top and bottom halves) were transferred (20 µL) to the corresponding wells of a 96-shallow-well (V-bottom) plate. The daughter plates were then matrix-matched (DPBS side wells received equal volume of plasma, and plasma side wells received equal volume of DPBS), and extraction solution (120 µL; acetonitrile containing 50 nM carbamazepine as IS) was added to all wells of both daughter plates to precipitate protein and extract test article. The plates were then sealed and centrifuged (3500 rcf) for 10 minutes at ambient temperature. Supernatant (60 µL) from each well of the daughter plates was then transferred to the corresponding wells of new daughter plates (96-shallow-well, V bottom) containing water (Milli-Q, 60 µL/well), and the plates were sealed in preparation for LC-MS/MS analysis (see LC-MS/MS analysis method below).
(§10) The unbound fraction (f u) was calculated following the equation below, and mean values for each species were calculated from 3 replicates. A similar approach was used to determine the degree of brain homogenate binding, which employed the same methodology and procedure with the following modifications: 1) a final compound concentration of 1 μM was used, 2) naïve rat brains were homogenized in DPBS (1:3 composition of brain: DPBS, w/w) using a Mini-Bead Beater™ machine in order to obtain brain homogenate, which was then treated in the same manner as the plasma samples in the previously described plasma protein binding assay. Fraction unbound for both plasma and brain samples was determined using Equation 4.

Data set [5] is described as follows: Plasma protein binding (mouse). The class given is in vitro ADME. Conditions: pH 7.4, read-out: PPB mouse (converted). On the procedure:
as §8, §9, §10

Data set [6] is described as follows: Liver microsome intrinsic clearance (rat). The class given is in vitro ADME. Conditions: pH 7.4; rat liver microsomes; read-out: LMS CLINT rat. The method, then:
as §1, §2, §3, §4, §5, §6, §7

A further data set can be described thus: Aqueous solubility. It is filed as physicochemical. Conditions: cyclopropyl amides versus N-Boc series.
Data set [7] in a line: Plasma protein binding (species not stated). It is filed as in vitro ADME. Conditions: pH 7.4. On the procedure: as §8
as §9, with “Supernatant (60 µL) from each well of the daughter plates was then transferred to the corresponding wells of new daughter plates (96-shallow-well, V bottom) containing water (Milli-Q, 60 µL/well), and the plates were sealed in preparation for LC-MS/MS analysis (see LC-MS/MS analysis method below).” left out
The unbound fraction (f u) was calculated following the equation below, and mean values for each species were calculated from 3 replicates. […] Fraction unbound for both plasma and brain samples was determined using Equation 4.

In the next data set the test system is TREK-1. Conditions: cited from earlier work.

pIC50: −log10 of the molar value. Read-outs that look alike come from different tables or passages of the source.

The chromatographic logD is lipophilicity estimated from chromatographic retention. A lower chromatographic logD goes with a more hydrophilic compound. `Cc1cc(OCc2ccccc2)ccc1NC(=O)c1cc(NC(=O)OC(C)(C)C)ccc1Cl` [Compound 6] had a chromatographic logD in the data set “ChromatoLogD” of 4.9. Besides, the “increase in TREK-1 potency” value at human TREK-1 (versus HTS hit 5) is approximately 17 fold.
In general, pIC50 refers to the IC50 on a negative log10 scale, so that one unit is a factor of ten. In the data set “ChromatoLogD”, `Cc1cc(OCc2ccccc2)cnc1NC(=O)c1cc(NC(=O)OC(C)(C)C)ccc1Cl` [Compound 10a] yielded a chromatographic logD of 4.4. For the same compound, the CLint scaled at 1 µM in data set [1] stood at 137 mL/min/kg. The pIC50 on human TREK-1 is 6.25.
Turning to `Cc1nc(OCc2ccccc2)ccc1NC(=O)c1cc(NC(=O)OC(C)(C)C)ccc1Cl` [Compound 10b], the chromatographic logD in “ChromatoLogD” was found to be 5.
Consider `Cc1nc(OCc2ccccc2)cnc1NC(=O)c1cc(NC(=O)OC(C)(C)C)ccc1Cl` [Compound 10c], for which the chromatographic logD in “ChromatoLogD” turned out to be 4.8. The clearance in [2] worked out at 135 mL/min/kg.
For `Cc1cc(C#Cc2ccccc2)cnc1NC(=O)c1cc(NC(=O)OC(C)(C)C)ccc1Cl` [Compound 11], the CLint scaled at 1 µM amounted to 13 mL/min/kg in [1] and 34 mL/min/kg in [3]. In data set [1] (versus 10a), the “lowering of human microsomal intrinsic clearance” value is reported as 10 fold. Also, the fraction unbound at 6 h, 5 µM was 0.005 in data set [4] and 0.013 in data set [5]. The “increase in TREK-1 potency” value at human TREK-1 (versus 10a) was approximately 4 fold.
In the case of `Cc1nc(C#Cc2ccccc2)cnc1NC(=O)c1cc(NC(=O)OC(C)(C)C)ccc1Cl` [Compound 12], in [2], the clearance was 25 mL/min/kg.
Regarding `CC(C)(C)OC(=O)Nc1ccc(Cl)c(C(=O)Nc2ncc(C#Cc3ccccc3)cc2F)c1` [Compound 13a], the CLint scaled at 1 µM in [1] stood at 10 mL/min/kg; in data set [3] it was 6 mL/min/kg. For the same compound, the fraction unbound at 6 h, 5 µM was 0.002 in [4] and 0.011 in data set [5].
Consider `CC(C)(C)OC(=O)Nc1ccc(Cl)c(C(=O)Nc2ncc(C#Cc3ccccc3)cc2Cl)c1` [Compound 13b], for which, in [5], the fraction unbound at 6 h, 5 µM was less than 0.001.
For the compound `Cc1cc(C#Cc2ccccc2F)cnc1NC(=O)c1cc(NC(=O)OC(C)(C)C)ccc1Cl` [Compound 14a], the CLint scaled at 1 µM in data set [1] and in [3] was 13 mL/min/kg each time. Besides, the pIC50 at human TREK-1 is 6.27.
`Cc1cc(C#Cc2cccc(F)c2)cnc1NC(=O)c1cc(NC(=O)OC(C)(C)C)ccc1Cl` [Compound 14b]: the CLint scaled at 1 µM in data set [1] was 20 mL/min/kg; in [3], 40 mL/min/kg. Besides, the fraction unbound at 6 h, 5 µM in data set [4] and in data set [5] was less than 0.001 throughout.
Turning to `Cc1cc(C#Cc2ccncc2)cnc1NC(=O)c1cc(NC(=O)OC(C)(C)C)ccc1Cl` [Compound 14d], the CLint scaled at 1 µM in data set [1] came out at 27 mL/min/kg; in data set [3] it was 78 mL/min/kg.
For the compound `Cc1cc(C#Cc2ccccc2)cnc1NC(=O)c1cc(NC(=O)C2CC2)ccc1Cl` [Compound 15a], the values for the CLint scaled at 1 µM in data set [1], in [3] and in data set [6] were 13 mL/min/kg, 69 mL/min/kg and 25 mL/min/kg, respectively. Moreover, the “aqueous solubility (in words)” value in “Aqueous solubility” was “no improvement on aqueous solubility”. In addition, the clearance at 24 h in data set [2] is 12 mL/min/kg. This compound also displayed a fraction unbound at 6 h, 5 µM in data set [7] of less than 0.003. The negative logarithm of the IC50 (pIC50) at human TREK-1 was 6.74.
Turning to `Cc1cc(C#Cc2ccc(F)cc2)cnc1NC(=O)c1cc(NC(=O)C2CC2)ccc1Cl` [Compound 15b], the figures for the CLint scaled at 1 µM in data set [1], in data set [3] and in data set [6] were 10 mL/min/kg, 50 mL/min/kg and 10 mL/min/kg, respectively. The “aqueous solubility (in words)” value in the data set “Aqueous solubility” was “no improvement on aqueous solubility”. Further, the clearance at 24 h in data set [2] worked out at 1.4 mL/min/kg. In addition, the fraction unbound at 6 h, 5 µM in data set [7] is less than 0.003.
With `Cc1ccccc1CC1OC(=O)c2cc(C3CCNCC3)ccc21` (centres unmarked) [Cpd8], the pIC50 in the data set on TREK-1 is 6.09.
`O=C(CSc1ccc2ccccc2n1)NNC(=O)c1ccc(Cl)cc1` [TKIM]: the pIC50 in the data set with TREK-1 (state-dependent TREK-1 inhibitor) is 5.53.

Values taken from publication PMC12067145 (ACS Medicinal Chemistry Letters, 2025).
